Results from ChEMBL document CHEMBL1154985, “Discovery of a novel series of potent S1P1 agonists” (Bioorg Med Chem Lett, 2010).
Values after ≈ are worked out from the molar mass of the structure shown. Active and inactive are the calls of the source. No cut-off for these calls is given here.

Tests used:
[1] = target: T1, Sphingosine 1-phosphate receptor 1 (Homo sapiens, UniProt P21453); test: Agonist activity at S1P1 receptor expressed in CHO cells after 60 mins by [35S]-GTPgammaS binding assay; format: functional, cell-based
T1 sequence (P21453 whole entry): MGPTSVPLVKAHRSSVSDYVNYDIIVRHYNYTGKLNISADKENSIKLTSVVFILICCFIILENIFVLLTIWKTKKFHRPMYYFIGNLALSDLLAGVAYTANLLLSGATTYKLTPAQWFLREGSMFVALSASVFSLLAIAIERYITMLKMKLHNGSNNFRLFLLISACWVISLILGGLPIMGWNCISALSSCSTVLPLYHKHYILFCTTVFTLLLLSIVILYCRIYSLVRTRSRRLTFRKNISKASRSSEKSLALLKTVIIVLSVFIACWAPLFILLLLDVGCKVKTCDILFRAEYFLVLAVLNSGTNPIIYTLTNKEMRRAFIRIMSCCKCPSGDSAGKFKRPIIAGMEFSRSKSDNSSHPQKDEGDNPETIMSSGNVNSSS

Mus musculus [2] = test: Reduction of S1P1-mediated lymphopenia in mouse assessed as blood lymphocyte depletion at 30 mg/kg, po after 4 hrs; format: functional; set-up: scale not given: the % may be the effect or the level left
Mus musculus [3] = test: Reduction of lymphopenia in mouse assessed as effect on erythrocytes at 30 mg/kg, po after 4 hrs; format: functional, organism-based; set-up: dose 30 mg/kg
Mus musculus [4] = test: Reduction of lymphopenia in mouse assessed as effect on platelets at 30 mg/kg, po after 4 hrs; format: functional, organism-based; set-up: dose 30 mg/kg
[5] = target: Sphingosine 1-phosphate receptor 5 (Homo sapiens, UniProt Q9H228); test: Agonist activity at S1P5 receptor expressed in CHO cells after 60 mins by [35S]-GTPgammaS binding assay; format: functional, cell-based
Sequence of Sphingosine 1-phosphate receptor 5 (Q9H228 whole entry): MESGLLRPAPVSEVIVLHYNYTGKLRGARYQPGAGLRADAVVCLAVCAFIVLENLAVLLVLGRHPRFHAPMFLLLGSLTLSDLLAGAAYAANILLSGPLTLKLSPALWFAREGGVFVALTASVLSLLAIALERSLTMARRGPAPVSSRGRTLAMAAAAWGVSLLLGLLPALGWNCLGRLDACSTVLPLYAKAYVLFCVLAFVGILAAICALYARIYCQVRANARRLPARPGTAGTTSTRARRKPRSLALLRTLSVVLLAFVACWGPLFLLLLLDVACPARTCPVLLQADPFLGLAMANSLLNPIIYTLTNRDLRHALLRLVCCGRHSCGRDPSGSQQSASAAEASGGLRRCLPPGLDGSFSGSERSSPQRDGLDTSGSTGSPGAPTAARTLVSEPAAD

[6] = Lipophilicity, log P of the compound; format: physicochemical; details: octanol/water
[7] = Solubility in PBS by nephelometry; format: physicochemical
[8] = Intrinsic clearance in human liver microsomes at 3 uM by LC/MS-MS analysis; format: ADME, Microsome
[9] = Intrinsic clearance in rat liver microsomes at 3 uM by LC/MS-MS analysis; format: ADME, Microsome
[10] = Apparent permeability across human Caco-2 cells by LC/MS-MS analysis; format: ADME, cell-based
[11] = target: T1, Sphingosine 1-phosphate receptor 1; test: Agonist activity at S1P1 receptor expressed in human U20S cells assessed as receptor internalization by green fluorescent protein reporter gene assay; format: functional, cell-based, U2OS
[12] = target: Sphingosine 1-phosphate receptor 3 (Homo sapiens, UniProt Q99500); test: Agonist activity at S1P3 receptor expressed in CHO cells after 60 mins by [35S]-GTPgammaS binding assay; format: functional, cell-based
Sequence of Sphingosine 1-phosphate receptor 3 (Q99500 whole entry): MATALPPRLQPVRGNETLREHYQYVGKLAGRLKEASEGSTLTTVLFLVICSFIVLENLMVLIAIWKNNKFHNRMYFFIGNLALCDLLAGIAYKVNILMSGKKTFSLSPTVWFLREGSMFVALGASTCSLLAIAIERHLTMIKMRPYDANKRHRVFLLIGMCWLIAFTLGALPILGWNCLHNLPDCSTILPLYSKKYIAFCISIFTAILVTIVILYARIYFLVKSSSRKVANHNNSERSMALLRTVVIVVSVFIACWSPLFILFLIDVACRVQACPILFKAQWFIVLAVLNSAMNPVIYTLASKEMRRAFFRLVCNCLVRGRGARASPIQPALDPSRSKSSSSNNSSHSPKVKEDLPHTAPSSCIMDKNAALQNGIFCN

[13] = Lipophilicity, log D at pH 7.4; format: physicochemical; details: buffer
[14] = Clearance in mouse; format: ADME, organism-based; details: in vivo

Structure (SMILES) | EC50 [1] [nM] | EC50 [5] [nM] | solubility kinetic [7] [µg/mL] | microsomal CLint at 3 µM [8] [µL/min/mg] | microsomal CLint at 3 µM [9] [µL/min/mg] | Papp [10] [×10⁻⁶ cm/s] | EC50 [12] [nM] | further results
CCCN(CC1CC1)c1cc(C(=O)Nc2ccc3[nH]ncc3c2)ncn1 |  | 142 | 11 (≈ 31.4 µM) | 17 | 57 | 8.5 |  | Activity (Mus musculus [2]): 72%; Activity (Mus musculus [3]): inactive; Activity (Mus musculus [4]): inactive; logP [6]: 4.6; EC50 [11]: 12 nM
O=C(Nc1ccc(O)cc1)c1cc(NC2CCCCC2)ncn1 |  |  |  |  |  |  | > 30000 | 
O=C(Nc1ccc2[nH]ccc2c1)c1cc(NC2CCCCC2)ncn1 | 12100 |  |  |  |  |  |  | 
CN(c1ccccc1)c1cc(C(=O)Nc2ccc(O)cc2)ncn1 | > 20000 |  |  |  |  |  |  | 
CCCN(CCC)c1cc(C(=O)Nc2ccc(O)cc2)ncn1 | 375 |  | 16 (≈ 50.9 µM) | 4 | 7 | 21.4 |  | 
COc1ccc(NC(=O)c2cc(NC3CCCCC3)ncn2)cc1 | > 20000 |  |  |  |  |  |  | 
NS(=O)(=O)c1ccc(NC(=O)c2cc(NC3CCCCC3)ncn2)cc1 |  |  |  |  |  |  |  | clearance [14]: 5 mL/min/kg
CC(=O)Nc1ccc(NC(=O)c2cc(NC3CCCCC3)ncn2)cc1 | > 20000 |  |  |  |  |  |  | 
Cc1cc(O)ccc1NC(=O)c1cc(NC(C)(C)C)ncn1 | > 20000 |  |  |  |  |  |  | 

Continued, in another order:

EC50 [1] [nM] | EC50 [5] [nM] | solubility kinetic [7] [µg/mL] | microsomal CLint at 3 µM [8] [µL/min/mg] | microsomal CLint at 3 µM [9] [µL/min/mg] | Papp [10] [×10⁻⁶ cm/s] | EC50 [12] [nM] | Structure (SMILES) | further results
> 20000 |  |  |  |  |  |  | Cc1cc(O)ccc1NC(=O)c1cc(NC2CC2)ncn1 | 
> 20000 |  |  |  |  |  |  | O=C(Nc1ccc(CO)cc1)c1cc(NC2CCCCC2)ncn1 | 
> 20000 |  |  |  |  |  |  | O=C(Nc1ccc(F)cc1F)c1cc(NC2CCCCC2)ncn1 | 
7300 |  |  |  |  |  |  | CN(c1cc(C(=O)Nc2ccc3[nH]nnc3c2)ncn1)C1CCCCC1 | 
 |  | 5 (≈ 12.8 µM) | 43 | 15 | 12.5 | > 30000 | Cc1cc(S(N)(=O)=O)ccc1NC(=O)c1cc(NC2CCCCC2)ncn1 | logP [6]: 3.6
 | 6.3 | > 45 | < 10 | < 10 | 0.8 | 1090 | O=C(O)CCNCc1ccc(NC(=O)c2cc(N(CC3CC3)C3CCCCC3)ncn2)cc1 | 
 | 114 | > 51 | 25 | 25 | 2 |  | Cc1cc(S(=O)(=O)NCCC(=O)O)ccc1NC(=O)c1cc(N(CC2CC2)C2CCCCC2)ncn1 | 
1.6 | 96 | 1 (≈ 2.25 µM) | 130 | 14 |  | > 30000 | Cc1cc(S(N)(=O)=O)ccc1NC(=O)c1cc(N(CC2CC2)C2CCCCC2)ncn1 | logP [6]: 5.7
3 | 0.6 | 22 (≈ 46.1 µM) | < 10 | < 10 | 2.4 | 236 | Cc1cc(CN2CC(C(=O)O)C2)ccc1NC(=O)c1cc(N(CC2CC2)C2CCCCC2)ncn1 | logD [13]: > 2.7; EC50 [11]: 3 nM
 | 258 | > 32 | 2 | 18 | 21.8 | > 30000 | Cc1cc(O)ccc1NC(=O)c1cc(NC2CCCCC2)ncn1 | logP [6]: 4.1; clearance [14]: 80.8 mL/min/kg
6 |  |  |  |  |  |  | CNS(=O)(=O)c1ccc(NC(=O)c2cc(N(CC3CC3)C3CCCCC3)ncn2)c(C)c1 | 
405 |  |  |  |  |  |  | CCN(c1cc(C(=O)Nc2ccc(O)cc2C)ncn1)C1CCCCC1 | 
 |  | 5 (≈ 12.4 µM) | < 10 | 26 | 0.1 |  | Cc1cc2[nH]ncc2cc1NC(=O)c1cc(N(CC2CC2)C2CCCCC2)ncn1 | logP [6]: 6.1
 | 191 | 8 (≈ 21 µM) | 22 | 52 |  | > 30000 | Cc1cc(O)ccc1NC(=O)c1cc(N(CC2CC2)C2CCCCC2)ncn1 | logP [6]: 7.4
